Measurements taken from patent US6984643B2, “2,5-substituted pyrimidine derivatives-CCR-3 receptor antagonists” (Roche Palo Alto LLC, priority 2002, dated 2006).

These compounds were tested against T1, CCR-3 receptor (Homo sapiens, UniProt P51677) (assay: CCR-3 Receptor Binding Assay in vitro (inhibition of 125I eotaxin binding to CCR-3 L1.2 transfectant cells)). Conditions: concentration reducing 125I-eotaxin binding to CCR-3 L1.2 transfected cells by 50%; read-out: CCR-3 IC50.
T1 construct: expressed in transfected cells; host or cells: L1.2 (murine pre-B lymphoma line)
T1 sequence (P51677 1-355): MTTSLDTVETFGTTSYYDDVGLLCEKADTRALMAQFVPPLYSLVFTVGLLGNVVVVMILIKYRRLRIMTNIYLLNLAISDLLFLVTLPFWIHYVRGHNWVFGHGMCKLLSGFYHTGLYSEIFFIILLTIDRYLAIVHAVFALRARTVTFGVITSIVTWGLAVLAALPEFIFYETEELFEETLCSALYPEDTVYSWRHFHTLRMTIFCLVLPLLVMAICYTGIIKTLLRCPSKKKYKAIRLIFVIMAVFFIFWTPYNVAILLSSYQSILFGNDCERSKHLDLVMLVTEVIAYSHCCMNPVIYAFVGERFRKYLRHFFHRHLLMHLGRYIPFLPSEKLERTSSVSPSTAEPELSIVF
Description: The CCR-3 antagonistic activity of the compounds of the invention was determined by their ability to inhibit the binding of ^125I eotaxin to CCR-3 L1.2 transfectant cells (see Ponath, P. D. et al., J. Exp. Med., Vol. 183, 2437-2448, (1996)).
The assay was performed in Costar 96-well polypropylene round bottom plates. Test compounds were dissolved in DMSO and then diluted with binding buffer (50 mM HEPES, 1 mM CaCl2, 5 mM MgCl2, 0.5% bovine serum albumin (BSA), 0.02% sodium azide, pH 7.24) such that the final DMSO concentration was 2%. Each well was filled with 25 μl of the test solution or only buffer with DMSO (control samples) followed by the addition of 25 μl of ^125I-eotaxin (100 pmol) (NEX314, New England Nuclear, Boston, Mass.) and 1.5×10^5 of the CCR-3 L1.2 transfected cells in 25 μl binding buffer. The final reaction volume was 75 μl.
After incubating the reaction mixture for 1 h at room temperature, the reaction was terminated by filtering the reaction mixture through polyethylenimine treated Packard Unifilter GF/C filter plate (Packard, Chicago, Ill.). The filters were washed four times with ice cold wash buffer containing 10 mM HEPES and 0.5M sodium chloride (pH 7.2) and dried at 65° C. for approximately 10 min. 25 μl/well of Microscint-20™ scintillation fluid (Packard) was added and the radioactivity retained on the filters was determined by using the Packard TopCount™.
The IC50 value (concentration of test compound required to reduce ^125I-eotaxin binding to the CCR-3 L 1.2 transfected cells by 50%) for compounds in Table I of the invention was between 0.02 and 200 μM, preferably between 0.02 and 10 μM.

IC50 | Structure (SMILES)
25 nM | COc1ccc(-c2cnc(SCC(=O)NCC3CCCN(Cc4ccc5cc[nH]c5c4)C3)nc2)cc1OC (stereo not drawn) [Compound 1]
29 nM | COc1ccc(-c2cnc(SCC(=O)NCC3CCCN(Cc4ccc(Cl)c(Cl)c4)C3)nc2)cc1OC (stereo not drawn) [Compound 2, N-[1-(3,4-dichloro-benzyl)-piperidin-3-ylmethyl]-2-[5-(3,4-dimethoxy-phenyl)-pyrimidin-2-ylsulfanyl]-acetamide]
107 nM | COc1ccc(-c2cnc(CCC(=O)NCC3CCCN(Cc4ccc(Br)c(Br)c4)C3)nc2)cc1OC (stereo not drawn) [Compound 8, N-[1-(3,4-dibromo-benzyl)-piperidin-3-ylmethyl]-3-[5-(3,4-dimethoxy-phenyl)-pyrimidin-2-yl]-propionamide]
152 nM | COc1ccc(-c2cnc(CCC(=O)NCC3CCCN(Cc4ccc(Cl)c(Cl)c4)C3)nc2)cc1OC (stereo not drawn) [Compound 9, N-[1-(3,4-dichloro-benzyl)-piperidin-3-ylmethyl]-3-[5-(3,4-dimethoxy-phenyl)-pyrimidin-2-yl]-propionamide]
164 nM | COc1ccc(-c2cnc(CCC(=O)NCC3CCCN(Cc4ccc(Cl)c(Cl)c4)C3)nc2)cc1OC (stereo not drawn) [Compound 10, N-[1-(3,4-dichloro-benzyl)-piperidin-3-ylmethyl]-3-[5-(3,4-dimethoxy-phenyl)-pyrimidin-2-yl]-propionamide]
205 nM | COc1ccc(-c2cnc(SCC(=O)NCC3CCCN(Cc4ccc5c(c4)OCO5)C3)nc2)cc1OC (stereo not drawn) [Compound 13, N-(1-benzo[1,3]-dioxol-5-ylmethyl-piperidin-3-ylmethyl]-2-[5-(3,4-dimethoxy-phenyl)-pyrimidin-2-ylsulfanyl]-acetamide]
263 nM | COc1ccc(-c2cnc(SCC(=O)NCC3CCCN(Cc4ccc5ccccc5c4)C3)nc2)cc1OC (stereo not drawn) [Compound 15, 2-[5-(3,4-dimethoxy-phenyl)-pyrimidin-2-ylsulfanyl]-N-(1-naphthalen-2-yl-methyl-piperidin-3-ylmethyl)-acetamide]
276 nM | COc1ccc(-c2cnc(SCC(=O)NCC3CCCN(Cc4ccc5c(c4)CCC5)C3)nc2)cc1OC (stereo not drawn) [Compound 16, 2-[5-(3,4-dimethoxy-phenyl)-pyrimidin-2-ylsulfanyl]-N-(1-indan-5-ylmethyl-piperidin-3-ylmethyl)-acetamide]
403 nM | COc1ccc(-c2cnc(CCC(=O)NCC3CCCN(Cc4cccc(Cl)c4Cl)C3)nc2)cc1 (stereo not drawn) [Compound 23, N-[1-(2,3-dichloro-benzyl)-piperidin-3-ylmethyl]-3-[5-(4-methoxy-phenyl)-pyrimidin-2-yl]-propionamide]
507 nM | COc1ccc(-c2cnc(OCC(=O)NCC3CCCN(Cc4cccc(Cl)c4Cl)C3)nc2)cc1OC (stereo not drawn) [Compound 26, N-[1-(2,3-dichloro-benzyl)-piperidin-3-ylmethyl]-2-[5-(3,4-dimethoxy-phenyl)-pyrimidin-2-yloxy]-acetamide]
731 nM | COc1ccc(-c2cnc(SCC(=O)NCC3CCCN(Cc4ccc5cc[nH]c5c4)C3)nc2)cc1 (stereo not drawn) [Compound 30]
973 nM | COc1ccc(-c2cnc(SCC(=O)NCC3CCCN(Cc4ccc(Cl)c(F)c4)C3)nc2)cc1OC (stereo not drawn) [Compound 33, N-[1-(4-chloro-3-fluoro-benzyl)-piperidin-3-ylmethyl]-2-[5-(3,4-dimethoxy-phenyl)-pyrimidin-2-ylsulfanyl]-acetamide]
994 nM | COc1ccc(-c2cnc(CCC(=O)NCC3CCCN(Cc4ccc5c(c4)CCC5)C3)nc2)cc1OC (stereo not drawn) [Compound 34, 3-[5-(3,4-dimethoxy-phenyl)-pyrimidin-2-yl]-N-(1-indan-5-yl-methyl-piperidin-3-ylmethyl)-propion-amide]
1060 nM | COc1ccc(-c2cnc(SCC(=O)NCC3CCCN(Cc4ccccc4)C3)nc2)cc1OC (stereo not drawn) [Compound 36, N-(1-benzyl-piperidin-3-ylmethyl)-2-[5-(3,4-dimethoxy-phenyl)-pyrimidin-2-ylsulfanyl]-acetamide]
1350 nM | O=C(CSc1ncc(-c2ccccc2)cn1)NCC1CCCN(Cc2ccc(O)c(O)c2)C1 (stereo not drawn) [Compound 38, N-[1-(3,4-dihydroxy-benzyl)-piperidin-3-ylmethyl]-2-(5-phenyl-pyrimidin-2-ylsulfanyl)-acetamide]
1370 nM | COc1ccc(-c2cnc(SCC(=O)NCC3CCCN(Cc4ccc(F)c(F)c4)C3)nc2)cc1 (stereo not drawn) [Compound 39, N-[1-(3,4-difluoro-benzyl)-piperidin-3-ylmethyl]-2-[5-(4-methoxy-phenyl)-pyrimidin-2-ylsulfanyl]-acetamide]
1390 nM | COc1ccc(-c2cnc(SCC(=O)NCC3CCCN(Cc4ccc5c(c4)CCC5)C3)nc2)cc1 (stereo not drawn) [Compound 40]
1560 nM | O=C(CSc1ncc(-c2ccccc2)cn1)NCC1CCCN(Cc2ccc3c(c2)OCO3)C1 (stereo not drawn) [Compound 41, N-(1-benzo[1,3]-dioxol-5-ylmethyl-piperidin-3-ylmethyl)-2-(5-phenyl-pyrimidin-2-ylsulfanyl)-acetamide]
1560 nM | O=C(CSc1ncc(-c2ccccc2)cn1)NCC1CCCN(Cc2ccc(Cl)c(Cl)c2)C1 (stereo not drawn) [Compound 42, N-[1-(3,4-dichloro-benzyl)-piperidin-3-ylmethyl]-2-(5-phenyl-pyrimidin-2-ylsulfanyl)-acetamide]
2080 nM | COc1ccc(-c2cnc(CCC(=O)NCC3CCCN(Cc4ccc5c(c4)OCO5)C3)nc2)cc1 (stereo not drawn) [Compound 44, N-(1-benzo[1,3]-dioxol-5-ylmethyl-piperidin-3-ylmethyl)-3-[5-(4-methoxy-phenyl)-pyrimidin-2-yl]-propionamide]
2110 nM | COc1ccc(-c2cnc(OCC(=O)NCC3CCCN(Cc4cccc(Cl)c4Cl)C3)nc2)cc1 (stereo not drawn) [Compound 46, N-[1-(2,3-dichloro-benzyl)-piperidin-3-ylmethyl]-2-[5-(4-methoxy-phenyl)-pyrimidin-2-yloxy]-acetamide]
2410 nM | O=C(CSc1ncc(-c2ccccc2)cn1)NCC1CCCN(Cc2ccc(Cl)c(C(F)(F)F)c2)C1 (stereo not drawn) [Compound 48, N-[1-(4-chloro-3-trifluoromethyl-benzyl)-piperidin-3-ylmethyl]-2-(5-phenyl-pyrimidin-2-yl-sulfanyl)-acetamide]
2810 nM | O=C(CSc1ncc(-c2ccccc2)cn1)NCC1CCCN(Cc2ccc(F)c(F)c2)C1 (stereo not drawn) [Compound 49, N-[1-(3,4-difluoro-benzyl)-piperidin-3-ylmethyl]-2-(5-phenyl-pyrimidin-2-ylsulfanyl)-acetamide]
4640 nM | COc1ccc(-c2cnc(OCC(=O)NCC3CCCN(Cc4ccc5c(c4)OCO5)C3)nc2)cc1OC (stereo not drawn) [Compound 51, N-(1-benzo[1,3]-dioxol-5-ylmethyl-piperidin-3-ylmethyl)-2-[5-(3,4-dimethoxy-phenyl)-pyrimidin-2-yloxy]-acetamide]
5740 nM | COc1cccc(-c2cnc(OCC(=O)NCC3CCCN(Cc4cccc(Cl)c4Cl)C3)nc2)c1 (stereo not drawn) [Compound 52, N-[1-(2,3-dichloro-benzyl)-piperidin-3-ylmethyl]-2-[5-(3-methoxy-phenyl)-pyrimidin-2-yloxy]-acetamide]
12000 nM | COc1cc(-c2cnc(CCC(=O)NCC3CCCN(Cc4cccc(Cl)c4Cl)C3)nc2)cc(OC)c1OC (stereo not drawn) [Compound 57, N-[1-(2,3-dichloro-benzyl)-piperidin-3-ylmethyl]-3-[5-(3,4,5-trimethoxy-phenyl)-pyrimidin-2-yl]-propionamide]
21000 nM | COc1cc(-c2cnc(OCC(=O)NCC3CCCN(Cc4ccc(Cl)c(Cl)c4)C3)nc2)cc(OC)c1OC (stereo not drawn) [Compound 58, N-[1-(3,4-dichloro-benzyl)-piperidin-3-ylmethyl]-2-[5-(3,4,5-trimethoxy-phenyl)-pyrimidin-2-yloxy]-acetamide]
128000 nM | COc1cccc(-c2cnc(OCC(=O)NCC3CCCN(Cc4ccc5c(c4)OCO5)C3)nc2)c1 (stereo not drawn) [Compound 62, N-(1-benzo[1,3]-dioxol-5-ylmethyl-piperidin-3-ylmethyl)-2-[5-(3-methoxy-phenyl)-pyrimidin-2-yloxy]-acetamide]
66 nM | COc1ccc(-c2cnc(SCC(=O)NCC3CCCN(Cc4cc(Br)c(Br)s4)C3)nc2)cc1OC (stereo not drawn) [Compound 63, N-[1-(4,5-dibromo-thiophen-2-ylmethyl)-piperidin-3-ylmethyl]-2-[5-(3,4-dimethoxy-phenyl)-pyrimidin-2-ylsulfanyl]-acetamide]

Same assay, conditions: stated in text for the compound where Z is —C(═O)—; assay not given; read-out: IC50

IC50 | Structure (SMILES)
1920 nM | COc1ccc(-c2cnc(SCC(=O)NCC3CCCN(C(=O)CCc4ccc(Cl)cc4)C3)nc2)cc1OC (racemic) [Compound 70, (±)-N-{1-[3-(4-Chlorophenyl)-propionyl]-piperidin-3-ylmethyl}-2-[5-(3,4-dimethoxy-phenyl)-pyrimidin-2-ylsulfanyl]-acetamide]
